Entries after “also recorded” stand apart in the source; their conditions may differ. Where two headings read alike, the source gives them in different places.
Legend:
mitochondria = experiment: Early toxicity: mitochondrial toxicity; assay type: cell-based; details: for % mitochondrial toxicity: 10 μM, 100% mitotoxic, 0% not mitotoxic; for mitochondrial toxicity: Table 4b
A549 = experiment: Early toxicity: A549 cell growth; assay type: cell-based; details: 10 μM; 100% = not cytotoxic, 0% = cytostatic, −100% = cytotoxic
[1] = Toxicity MTT assay in PMA-differentiated THP-1 cells; assay type: cell-based, human; details: human, PMA-differentiated THP-1 cells (macrophages); for CC50: THP-1 macrophages, Table 1, read-out: Toxicity CC50 ± SD or NOAEL; for IC50: Table 4b, read-out: Cytotoxicity THP-1 (IC50)
From the text: (§1) The in vitro antiparasitic activity against L. infantum (MHOM/MA/67/ITMAP-263) and the toxicity against THP-1 macrophages is presented in Table 1.

CYP2D6 = CYP2D6 (Homo sapiens, UniProt P10635); experiment: Early toxicity: CYP2D6 inhibition; assay type: in vitro ADME; details: Table 4a; for inhibition at 10 µM: human
Chain of CYP2D6 (P10635 whole entry): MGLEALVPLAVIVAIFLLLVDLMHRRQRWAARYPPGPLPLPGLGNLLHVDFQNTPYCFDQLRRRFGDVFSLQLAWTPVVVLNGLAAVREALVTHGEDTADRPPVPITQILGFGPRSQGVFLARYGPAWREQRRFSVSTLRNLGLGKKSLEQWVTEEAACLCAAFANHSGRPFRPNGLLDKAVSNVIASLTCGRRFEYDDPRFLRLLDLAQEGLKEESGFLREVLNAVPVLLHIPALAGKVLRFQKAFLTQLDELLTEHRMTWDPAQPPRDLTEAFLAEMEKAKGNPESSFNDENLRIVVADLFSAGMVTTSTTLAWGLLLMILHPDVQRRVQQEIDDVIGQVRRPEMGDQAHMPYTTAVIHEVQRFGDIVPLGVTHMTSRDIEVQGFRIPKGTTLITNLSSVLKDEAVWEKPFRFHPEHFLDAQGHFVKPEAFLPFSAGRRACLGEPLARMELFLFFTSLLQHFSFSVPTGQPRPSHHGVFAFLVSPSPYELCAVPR

[2] = test system: L. infantum (MHOM/MA/67/ITMAP-263) intracellular amastigotes; experiment: Anti-parasitic activity against L. infantum intracellular amastigotes (infection with axenic amastigotes luciferase positive); assay type: cell-based; details: Table 1; for inhibition at 10 µM / IC50: Leishmania infantum; for inhibition at 10 µM: read-out: Single Dose Assay 10 μM Mean Inhibitory Activity (%) ± SD; for IC50: read-out: Dose Response Curves IC50 ± SD; for Selectivity Index CC50/IC50 or NOAEL/IC50: THP-1 toxicity / L. infantum IC50
CYP2C19 = CYP2C19 (Homo sapiens, UniProt P33261); experiment: Early toxicity: CYP2C19 inhibition; assay type: in vitro ADME; details: Table 4a; for inhibition at 10 µM: human
Chain of CYP2C19 (P33261 whole entry): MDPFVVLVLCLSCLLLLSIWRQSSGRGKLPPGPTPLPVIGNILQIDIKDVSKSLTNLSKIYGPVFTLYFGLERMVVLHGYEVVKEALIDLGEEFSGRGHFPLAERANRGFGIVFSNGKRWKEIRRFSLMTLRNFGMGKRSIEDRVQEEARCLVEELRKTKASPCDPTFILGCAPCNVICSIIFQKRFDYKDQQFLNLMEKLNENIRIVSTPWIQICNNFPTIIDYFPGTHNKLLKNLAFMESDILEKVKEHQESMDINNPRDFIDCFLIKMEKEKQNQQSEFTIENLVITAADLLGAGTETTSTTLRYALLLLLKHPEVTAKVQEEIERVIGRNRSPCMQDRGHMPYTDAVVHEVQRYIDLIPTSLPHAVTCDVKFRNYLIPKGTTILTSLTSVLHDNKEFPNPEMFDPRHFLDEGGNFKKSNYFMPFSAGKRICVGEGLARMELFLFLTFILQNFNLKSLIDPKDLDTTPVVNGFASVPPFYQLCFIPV

CYP1A2 = biological target: T1, CYP1A2 (Homo sapiens, UniProt P05177); experiment: Early toxicity: CYP1A2 inhibition; assay type: in vitro ADME; details: mean ± SD, Table 4a; for inhibition at 10 µM: human
T1 sequence (P05177 1-516): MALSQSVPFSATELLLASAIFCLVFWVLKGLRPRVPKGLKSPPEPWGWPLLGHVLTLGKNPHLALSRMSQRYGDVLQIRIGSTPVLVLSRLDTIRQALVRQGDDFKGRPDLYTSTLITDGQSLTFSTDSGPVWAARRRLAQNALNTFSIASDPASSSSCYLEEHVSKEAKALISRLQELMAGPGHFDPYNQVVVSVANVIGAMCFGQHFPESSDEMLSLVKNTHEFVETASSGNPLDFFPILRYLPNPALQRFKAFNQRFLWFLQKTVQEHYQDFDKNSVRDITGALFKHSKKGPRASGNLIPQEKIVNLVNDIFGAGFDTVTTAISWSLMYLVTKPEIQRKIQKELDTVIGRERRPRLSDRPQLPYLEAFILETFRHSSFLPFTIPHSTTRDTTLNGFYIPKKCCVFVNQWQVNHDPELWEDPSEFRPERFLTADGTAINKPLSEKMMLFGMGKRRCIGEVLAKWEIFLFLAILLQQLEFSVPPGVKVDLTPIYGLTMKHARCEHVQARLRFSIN

hERG channel = hERG channel (Homo sapiens, UniProt Q12809); experiment: Early toxicity: hERG inhibition; details: for inhibition at 10 µM: human
Chain of hERG channel (Q12809 whole entry): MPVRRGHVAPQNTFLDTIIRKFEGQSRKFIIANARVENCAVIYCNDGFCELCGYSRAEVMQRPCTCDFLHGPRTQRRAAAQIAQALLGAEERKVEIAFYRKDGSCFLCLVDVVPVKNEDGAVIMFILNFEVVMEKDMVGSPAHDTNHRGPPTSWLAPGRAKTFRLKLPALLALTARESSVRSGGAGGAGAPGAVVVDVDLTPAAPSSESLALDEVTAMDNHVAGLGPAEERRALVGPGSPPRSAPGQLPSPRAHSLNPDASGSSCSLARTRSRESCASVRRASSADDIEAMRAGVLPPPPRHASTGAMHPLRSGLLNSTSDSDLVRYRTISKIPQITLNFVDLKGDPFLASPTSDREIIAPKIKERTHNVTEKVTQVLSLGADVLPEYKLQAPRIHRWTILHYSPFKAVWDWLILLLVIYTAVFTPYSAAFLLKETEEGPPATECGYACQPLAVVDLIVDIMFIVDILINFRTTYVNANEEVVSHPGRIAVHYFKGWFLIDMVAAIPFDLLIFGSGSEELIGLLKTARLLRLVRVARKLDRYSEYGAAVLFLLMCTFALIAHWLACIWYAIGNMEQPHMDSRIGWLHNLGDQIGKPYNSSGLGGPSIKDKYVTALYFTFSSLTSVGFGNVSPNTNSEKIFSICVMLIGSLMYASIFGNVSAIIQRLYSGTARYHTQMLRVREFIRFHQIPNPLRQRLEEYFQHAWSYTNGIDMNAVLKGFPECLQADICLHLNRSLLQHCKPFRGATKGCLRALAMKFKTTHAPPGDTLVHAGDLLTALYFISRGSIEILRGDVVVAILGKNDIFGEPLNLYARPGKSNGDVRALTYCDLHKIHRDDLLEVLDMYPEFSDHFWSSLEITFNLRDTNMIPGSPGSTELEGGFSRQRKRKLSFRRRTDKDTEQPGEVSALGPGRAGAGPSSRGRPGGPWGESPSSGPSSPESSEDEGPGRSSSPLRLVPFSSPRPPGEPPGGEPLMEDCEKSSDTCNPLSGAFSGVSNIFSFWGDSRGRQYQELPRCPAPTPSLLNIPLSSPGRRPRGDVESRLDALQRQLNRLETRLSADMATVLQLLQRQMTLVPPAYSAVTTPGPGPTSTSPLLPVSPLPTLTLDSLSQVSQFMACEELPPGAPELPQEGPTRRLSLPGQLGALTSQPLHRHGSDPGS

CYP3A4 = CYP3A4 (Homo sapiens, UniProt P08684); experiment: Early toxicity: CYP3A4 inhibition; assay type: in vitro ADME; details: Table 4a; for inhibition at 10 µM: human, read-out: % inhibition CYP3A4
Chain of CYP3A4 (P08684 whole entry): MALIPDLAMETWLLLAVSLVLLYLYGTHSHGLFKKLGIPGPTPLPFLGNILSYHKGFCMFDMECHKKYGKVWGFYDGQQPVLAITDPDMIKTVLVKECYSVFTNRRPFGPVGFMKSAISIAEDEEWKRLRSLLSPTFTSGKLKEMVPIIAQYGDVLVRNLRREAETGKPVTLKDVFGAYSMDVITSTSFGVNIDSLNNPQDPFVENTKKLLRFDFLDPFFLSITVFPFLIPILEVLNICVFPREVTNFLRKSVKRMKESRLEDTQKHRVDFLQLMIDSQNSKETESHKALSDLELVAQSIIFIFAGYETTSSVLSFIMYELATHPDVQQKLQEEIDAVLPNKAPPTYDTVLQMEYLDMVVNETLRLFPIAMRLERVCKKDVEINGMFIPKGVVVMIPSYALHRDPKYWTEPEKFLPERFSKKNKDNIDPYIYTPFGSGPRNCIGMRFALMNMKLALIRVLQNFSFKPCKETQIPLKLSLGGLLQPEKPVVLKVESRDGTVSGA

CYP2C9 = CYP2C9 (Homo sapiens, UniProt P11712); experiment: Early toxicity: CYP2C9 inhibition; assay type: in vitro ADME; details: mean ± SD, Table 4a; for inhibition at 10 µM: human
Chain of CYP2C9 (P11712 whole entry): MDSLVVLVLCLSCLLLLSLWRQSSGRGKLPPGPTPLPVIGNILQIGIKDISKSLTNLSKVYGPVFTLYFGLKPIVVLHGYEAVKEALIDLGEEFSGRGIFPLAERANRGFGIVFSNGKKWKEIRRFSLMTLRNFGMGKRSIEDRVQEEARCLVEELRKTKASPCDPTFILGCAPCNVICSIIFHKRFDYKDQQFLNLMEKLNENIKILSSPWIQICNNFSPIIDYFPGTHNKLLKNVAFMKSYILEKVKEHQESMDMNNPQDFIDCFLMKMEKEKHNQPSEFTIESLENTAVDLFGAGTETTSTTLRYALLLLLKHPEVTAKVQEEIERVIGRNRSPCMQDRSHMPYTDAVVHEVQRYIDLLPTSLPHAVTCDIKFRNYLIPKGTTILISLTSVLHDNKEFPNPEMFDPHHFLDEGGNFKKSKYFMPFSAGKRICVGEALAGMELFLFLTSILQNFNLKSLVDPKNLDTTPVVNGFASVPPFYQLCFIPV

[3] = Snapshot pharmacokinetics in plasma after oral gavage; assay type: in vivo, mice; details: mouse, plasma, po, healthy BALB/c mice, 20 mg/kg gavage, Table 13
Description: Pharmacology of 5-cyclopentadecylpentyl (2-(trimethylammonio)ethyl) phosphate (19) in mice.
Blood samples were collected from the tail vein at 0, 0.5, 0.75, 1, 3, 24 and 72 hours into heparinized tubes. Moreover, biodistribution of the molecule, 72h after administration, was determined in several organs of the treated mice, namely brain, liver, spleen, kidney, heart and bone marrow. […] J Chromatogr B, 865: 55-62) by liquid chromatography mass spectrometry (LC-MS/MS).

[4] = test system: PMA-differentiated THP-1 cells; experiment: Toxicity MTT assay in PMA-differentiated THP-1 cells; assay type: cell-based, human; details: for CC50: read-out: Toxicity CC50 ± SD or NOAEL
From the text: as §1

[5] = test system: T. b. brucei L427 WT Blood-Stream Form; experiment: Anti-parasitic activity against T. b. brucei blood-stream form (resazurin 72 h assay); assay type: cell-based; details: Table 2; for inhibition at 10 µM: Trypanosoma brucei, read-out: Single Dose Assay 10 μM Mean Inhibitory Activity (%) ± SD
T. b. brucei GVR35 = experiment: Stage II HAT mice model, live imaging; assay type: in vivo
W1-38 = experiment: Early toxicity: W1-38 cell growth; assay type: cell-based; details: 10 μM

| SMILES | % mitochondrial toxicity (mitochondria) | mitochondrial toxicity (mitochondria) | % cell growth A549 (A549) | CC50 [1] | IC50 [1] | inhibition at 10 µM (CYP2D6; mean ± SD) | inhibition at 10 µM ([2]; 10 μM) | IC50 [2] | Selectivity Index CC50/IC50 or NOAEL/IC50 [2] | inhibition at 10 µM (CYP2C19; mean ± SD) | inhibition at 10 µM (CYP1A2) | Flag for Interference, hERG (hERG channel; Table 4b) | inhibition at 10 µM (hERG channel) | inhibition at 10 µM (CYP3A4; 10 μM, mean ± SD) | inhibition at 10 µM (CYP2C9) | CC50 ([4]; Table 2) | inhibition at 10 µM ([5]; 10 μM) | further results |
| --- | --- | --- | --- | --- | --- | --- | --- | --- | --- | --- | --- | --- | --- | --- | --- | --- | --- | --- |
| C[N+](C)(C)CCOP(=O)([O-])OCCC1CCCCCCCCCCCCCC1 [Compound 28, 2-cyclopentadecylethyl (2-(trimethylammonio)ethyl) phosphate] | 119.09 ± 14.82% | exhibit mitochondrial toxicity | 120.79 ± 0.63% | > 100 µM | > 100 µM | 37.7 ± 3.27% | 70 ± 7% | 1.12 ± 0.45 µM | >90 | 21.3 ± 3.7% | 15.6 ± 2.12% | (no) | 39 ± 5.84% | 27.8 ± 1.95% | 9.6 ± 4.6% |  |  |  |
| C[N+](C)(C)CCOP(=O)([O-])OCCCCCC1CCCCCCCCCCC1 [Compound 17, 5-cyclododecylpentyl (2-(trimethylammonio)ethyl) phosphate] | 110.46 ± 13.08% | exhibit mitochondrial toxicity | 121.61 ± 8.94% | > 100 µM | > 100 µM | 48.9 ± 2.97% | 96 ± 2% | 0.6 ± 0.2 µM | >166 | 35.9 ± 4.97% | 18.9 ± 0.69% | (no) | 26.3 ± 12.9% | 55.3 ± 4.28% | 10.3 ± 6.3% | > 100 µM | 21 ± 15% | AUC(0-inf) ([3]; read-out: AUC (0-∞)): 11300 ng·h/mL; AUC(0-inf) ([3]; read-out: AUC (0-∞) (μM h/mL)): 26.9 µM·h; Cmax ([3]; read-out: Cmax): 4.88 µM; Cmax ([3]; read-out: Cmax (μg/mL)): 2.05 µg/mL; Tmax ([3]; read-out: tmax): 3 h; half-life ([3]; read-out: t½ (converted)): 6.9 h; CYP2D6 interaction / inhibition (CYP2D6; 10 μM): interact; also recorded: significant inhibition; CYP2C19 interaction / inhibition (CYP2C19; 10 μM): interact; also recorded: significant inhibition; CYP3A4 interaction (CYP3A4): interact; activity against T. b. brucei blood-stream form [5]: unexpectedly high activity in the low micromolar range |
| C[N+](C)(C)CCOP(=O)([O-])OCCCCC=C1CCCCCCCCCCC1 [Compound 12, 5-cyclododecylidenepentyl (2-(trimethylammonio)ethyl) phosphate] | 113.57 ± 12.08% | exhibit mitochondrial toxicity | 130.21 ± 5.63% | > 100 µM | > 100 µM | 15.1 ± 2.98% | 95 ± 2% | 0.9 ± 0.7 µM | >111 | 11.2 ± 5.4% | 10.2 ± 5.03% | (no) | -2.04 ± 7.61% | 35.7 ± 6.01% | 1.76 ± 1.59% | > 100 µM | 8 ± 8% |  |
| C[N+](C)(C)CCOP(=O)([O-])OCCCCC1CCCCCCCCCCC1 [Compound 16, 4-cyclododecylbutyl (2-(trimethylammonio)ethyl) phosphate] |  |  |  | > 100 µM |  |  | 87 ± 17% | 0.86 ± 0.33 µM | >116 |  |  |  |  |  |  | > 100 µM |  |  |
| N=C(N)c1ccc(OCCCCCOc2ccc(C(=N)N)cc2)cc1 [pentamidine, reference compound] |  |  |  |  |  |  |  |  |  |  |  |  |  |  |  |  |  | infection in the brain (T. b. brucei GVR35; 5 mg/kg/day IP): not able to clear infection in the brain |
| Nc1nc(N)nc(Nc2ccc([As]3SCC(CO)S3)cc2)n1 (centres unmarked) [melarsoprol, reference compound] |  |  |  |  |  |  |  |  |  |  |  |  |  |  |  |  |  | infection outcome (words) (T. b. brucei GVR35; 10 mg/kg/day IP, 7 days of treatment): able to clear the infection |
| C[N+](C)(C)CCCOP(=O)([O-])OCCCCC=C1CCCCCCCCCCCCCC1 [Compound 15, 5-cyclopentadecylidenepentyl (3-(trimethylammonio)propyl) phosphate] | 1.08 ± 12.57% |  | 112.20 ± 6.11% | > 100 µM | > 100 µM | 32.4 ± 2.88% | 49 ± 1% |  |  | 42 ± 7.27% | 9.44 ± 2.84% | (no) | 15.5 ± 4.66% | 23.4 ± 1.94% | 15.6 ± 6.17% | > 100 µM | 14 ± 5% | % cell growth W1-38 (W1-38): 124.02 ± 7.42% |
| C[N+](C)(C)CCOP(=O)([O-])OCCC1CCCCCCCCCCC1 [Compound 27, 2-cyclododecylethyl (2-(trimethylammonio)ethyl) phosphate] | 113.87 ± 2.81% |  | 126.46 ± 6.12% | > 100 µM | > 100 µM | 6.92 ± 4.21% | 36 ± 5% |  |  | 11 ± 5.72% | 22.2 ± 1.59% | (no) | -4.11 ± 10.4% | 24.8 ± 3.15% | 13.7 ± 6.52% |  |  |  |
| C[N+](C)(C)CCOP(=O)([O-])OCCCC=C1CCCCCCCCCCC1 [Compound 11, 4-cyclododecylidenebutyl (2-(trimethylammonio)ethyl) phosphate] |  |  |  | > 100 µM |  |  | 76 ± 22% | 2.59 ± 0.94 µM | >38.6 |  |  |  |  |  |  | > 100 µM |  |  |
| C[N+](C)(C)CCCOP(=O)([O-])OCCCCCC1CCCCCCCCCCCCCC1 [Compound 20, 5-cyclonentadecyloentyl (3-(trimethylammonio)propyl) phosohate] | −3.82 ± 5.49% |  | 104.50 ± 4.67% |  |  |  |  |  |  |  |  | (no) |  |  |  | > 100 µM |  | % cell growth W1-38 (W1-38): 98.77 ± 10.61%; CC50 ([4]; THP-1 macrophages, Table 1): > 100 µM; IC50 ([4]; Table 4b, read-out: Cytotoxicity THP-1 (IC50)): > 100 µM; % inhibition CYP2D6 (CYP2D6; 10 μM, mean ± SD): 44.01 ± 3.51%; Single Dose Assay 10 μM Mean Inhibitory Activity (%) ± SD ([2]; 10 μM): 53 ± 6%; % inhibition CYP2C19 (CYP2C19; 10 μM, mean ± SD): 52.28 ± 5.17%; % inhibition CYP1A2 (CYP1A2; 10 μM): 10.14 ± 3.87%; % inhibition hERG (hERG channel; 10 μM, Table 4b): 4.56 ± 15.55%; % inhibition CYP3A4 (CYP3A4; 10 μM, mean ± SD): 22.83 ± 5.05%; % inhibition CYP2C9 (CYP2C9; 10 μM): 15.44 ± 0.53%; Single Dose Assay 10 μM Mean Inhibitory Activity (%) ± SD ([5]; 10 μM): 24 ± 10% |
